Assay results reported in patent publication US20080090835A1, “Polymorphic forms of ziprasidone HCl and processes for their preparation” (Teva Pharmaceuticals USA, Inc. for Barbados, priority 2003, published 2008).
Structures can show the parent of a compound that is named as a salt.

Columns and labels:
Type in all cases: physicochemical
[1] = Solubility in methanol (noted for Karl Fisher water determination)
From the text: Ziprasidone HCl Form G may have a water content of about 5% to about 12%. Ziprasidone HCl Form G may be a dihydrate (about 7.4% stoichiometric value for the dihydrate) or a trihydrate (about 10.7% stoichiometric value for the trihydrate).

[2] = Equilibration at different relative humidities for 22 days: water uptake (TGA weight loss) and crystal form; settings: for TGA weight loss (%) (water uptake): HCl
From the text: (§1) Form A is characterized by an X-Ray diffraction pattern having peaks at about 10.9, 17.4 19.1, 25.0 and 26.0±0.2 degrees 2 theta.
(§2) In another aspect, the present invention provides for ziprasidone HCl Form F. Ziprasidone HCl Form F is characterized by an XRD pattern (FIG. 7) with peaks at 11.0, 18.1, 19.5, 21.9±0.2 degrees 2 theta. Ziprasidone HCl Form F is further characterized by XRD peaks at 14.9, 24.9, 26.1±0.2 degrees 2 theta. […] The water content and the weight loss by TGA of the sample may range of about 2.6% to about 16% by weight.
(§3) X-Ray powder diffraction data were obtained using by method known in the art using a SCINTAG powder X-Ray diffractometer model X'TRA equipped with a solid state detector. Copper radiation of 1.5418 Å was used. A round aluminum sample holder with round zero background quartz plate, with cavity of 25(diameter)*0.5(dept) mm.
TGA analysis was done using a Mettler M3 meter. The weight of the samples was about 10 mg; the samples were scanned at a rate of 10° C./min from 25° C. to 200° C. The oven was constantly purged with nitrogen gas at a flow rate of 40 ml/min. Standard 70 μl alumina crucibles covered by lids with 1 hole were used.
(§4) The water content of ziprasidone HCl was measured by the methods known in the art like Karl Fisher or thermogravimetric analysis (TGA). In the case of ziprasidone HCl F, the TGA and Karl Fisher analysis matched, while for ziprasidone HCl form E the TGA analysis exceeded by far that of Karl Fisher, as an indication that a significant quantity of solvent is present.

[3] = Heating at 80-105° C. overnight: crystal form and water content; settings: for Crystal form after heating at 80-105° C. overnight / Crystal form after heating at elevated temperature: HCl; for Crystal form after heating at elevated temperature: about 80° C. overnight
From the text: as §1, §2, §3, §4

Solubility in water = experiment: Solubility in water

Compound: O=C1Cc2cc(CCN3CCN(c4nsc5ccccc45)CC3)c(Cl)cc2N1 [Ziprasidone HCl Form G, ziprasidone HCl]
- Solubility in methanol [1]: sparingly soluble

Compound: O=C1Cc2cc(CCN3CCN(c4nsc5ccccc45)CC3)c(Cl)cc2N1 [ziprasidone HCl form F, ziprasidone HCl]
- TGA weight loss (%) (water uptake) ([2]; RH 0%, 22 days): 2.6%
- TGA weight loss (%) (water uptake) ([2]; RH 20%, 22 days): 4.2%
- TGA weight loss (%) (water uptake) ([2]; RH 40%, 22 days): 4.0%
- TGA weight loss (%) (water uptake) ([2]; RH 60%, 22 days): 4.5%
- TGA weight loss (%) (water uptake) ([2]; RH 80%, 22 days): 7.7%
- TGA weight loss (%) (water uptake) ([2]; RH 100%, 22 days): 15.8%
- Crystal form after equilibration at relative humidity of about 0% to about 100% ([2]; RH about 0% to about 100%): retains its crystal form
- Crystal form after heating at 80-105° C. overnight [3]: Form F
- Crystal form after heating at elevated temperature [3]: retains its original crystal form
- % water content ([3]; after heating at 80-105° C. overnight): 0.8%
- Water content after heating ([3]; heated overnight at about 80° C.): 0.8%

Compound: O=C1Cc2cc(CCN3CCN(c4nsc5ccccc45)CC3)c(Cl)cc2N1 [ziprasidone HCl form E, ziprasidone HCl]
- Crystal form ([2]; RH 0%, 22 days): Amorphous
- TGA weight loss (%) (water uptake) ([2]; RH 0%, 22 days): 5.3%
- TGA weight loss (%) (water uptake) ([2]; RH 20%, 22 days): 7.2%
- TGA weight loss (%) (water uptake) ([2]; RH 40%, 22 days): 4.8%
- TGA weight loss (%) (water uptake) ([2]; RH 60%, 22 days): 5.0%
- Crystal form ([2]; RH 80%, 22 days): Monohydrate +
- TGA weight loss (%) (water uptake) ([2]; RH 80%, 22 days): 9.2%
- Crystal form ([2]; RH 100%, 22 days): Monohydrate +
- TGA weight loss (%) (water uptake) ([2]; RH 100%, 22 days): 51.3%
- Crystal form after exposure to relative humidity of about 20% to about 60% ([2]; RH about 20% to about 60%, about 22 days): transforms to Form A
- Crystal form after exposure to low relative humidity ([2]; about 10% to about 0% relative humidity, 22 days): transforms to amorphous form
- Crystal form after exposure to high relative humidity ([2]; high relative humidity, about 22 days): transforms to form M
- Crystal form after heating at 80-105° C. overnight [3]: Amorphous + form F
- Crystal form after heating at elevated temperature [3]: transforms to amorphous form

Compound: O=C1Cc2cc(CCN3CCN(c4nsc5ccccc45)CC3)c(Cl)cc2N1 [ziprasidone HCl]
- Solubility in water (Solubility in water): low solubility
